For one test, the system named is plant chloroplasts. Conditions: H2O2 concentrations as low as 10 μM; cited from earlier work.
Test [1] deals with Synechococcus elongatus PCC 7942. To be noted: non-linear regression of dose response data, FIG. 11; wild type vs insertional katG null mutant.
Protocol: These experiments generate dose response curves for growth versus H2O2-based algaecide concentration. […] EC50 for growth rate is determined from non-linear regression curves fitted to growth rate data from 5-7 experimental replicates at 5 to 7 stress doses. To fit curves, non-linear regressions are applied to the dose response data and the fit of the regression curve to the log-logistic equation will be F-tested.
One of these strains was a wild type (WT) and one was an insertional null mutant for the major cyanobacterial catalase encoded by the katG gene.

Here are results for one molecule from patent publication US9631170B2, “Genetically inducible hydrogen peroxide resistance and production” (University of Wyoming, priority 2011, dated 2017).

Turning to `OO` [H2O2, hydrogen peroxide], the “decrease of photosynthetic carbon fixation” value in the test with plant chloroplasts was 50%. Besides, the “resistance to exogenous H2O2 of wild type relative to katG null mutant lacking catalase activity” value in test [1] was roughly 2 fold.
